Some results are limits rather than exact numbers.

Common to all, as to assay type: biochemical
For one test, the target named is T1, JAK1 (Homo sapiens, UniProt P23458).
T1 construct: JAK1 (aa 850-1154) and TYK2 (aa 871-1187) are expressed with an N-terminally fused GST-tag; GST (N); purchased Carna Biosciences, Inc; host or cells: baculovirus expression system
Briefly: JAK kinase assay (HTRF, phosphorylation of synthetic peptide), JAK1. The conditions noted are these: catalytic domain, ATP at Km (7 μM); read-out: JAK1 kinase inhibitory activity (EC50). The procedure:
(§1) Human baculovirus-expressed JAK1, 2, 3 and TYK2 were purchased from Carna Biosciences, Inc. All four purified enzymes contain only the catalytic domain. JAK1 (aa 850-1154) and TYK2 (aa 871-1187) are expressed with an N-terminally fused GST-tag, and JAK2 and JAK3 with an N-terminally fused His-tag.
(§2) Inhibition of phosphorylation of a synthetic peptide was measured in an HTRF-based assay using the TK substrate-Biotin from the Cisbio HTRFKinEASE TK kit. First, 2 μl of TK solution (TK substrate-biotin in kinase buffer [1× enzymatic buffer from HTRFKinEASE TK kit, 1 mM DTT]) is added to a plate containing 1 μl prediluted compound (final assay concentration DMSO: 0.75%). Then, 5 μl kinase-ATP mix (prepared in kinase buffer) is added to the wells and the plates are incubated at RT for 20-30 min. For all four kinases a concentration of ATP that corresponded to the Km for ATP was used. The final concentrations of buffers, substrate, kinase and ATP were: JAK1: 50 mM Hepes buffer pH 7.0, 0.01% BSA, 10 mM MgCl2, 1 mM DTT, 7 μM ATP, 50 nM SEB, 1 μM TK Substrate-Biotin and 5 ng JAK1; JAK2: 50 mM Hepes buffer pH 7.0, 0.01% BSA, 5 mM MgCl2, 1 mM DTT, 4 μM ATP, 1 μM TK Substrate-Biotin and 0.1 ng JAK2; JAK3: 50 mM Hepes buffer pH 7.0, 0.01% BSA, 5 mM MgCl2, 1 mM DTT, 2 μM ATP, 1 μM TK Substrate-Biotin and 0.3 ng JAK3; TYK2: 50 mM Hepes buffer pH 7.0, 0.01% BSA, 5 mM MgCl2, 1 mM DTT, 13 μM ATP, 50 nM SEB, 1 μM TK Substrate-Biotin and 0.8 ng TYK2. Thereafter, the kinase reaction is stopped by adding 4 μl detection mix (final concentrations: 50 mM Hepes buffer pH 7.0, 0.01% BSA, 0.8 M KF, 20 mM EDTA, 42 nM Streptavidin-XL665 and 1:400 STK Ab Cryptate) and the plates are incubated overnight in the dark. The HTRF signal is read using an Envision plate reader.
(In TR-FRET formats the signal depends on donor and acceptor labels being close together.)

The next test concerns the target T2, JAK2 (Homo sapiens, UniProt O60674).
T2 construct: All four purified enzymes contain only the catalytic domain; His (N); purchased Carna Biosciences, Inc; host or cells: baculovirus expression system
Briefly: JAK kinase assay (HTRF, phosphorylation of synthetic peptide), JAK2. The settings on record: catalytic domain, ATP at Km (4 μM); read-out: JAK2 kinase inhibitory activity (EC50). The procedure:
as §1, §2

For a further test, the target named is T3, JAK3 (Homo sapiens, UniProt P52333).
T3 construct: All four purified enzymes contain only the catalytic domain; His (N); purchased Carna Biosciences, Inc; host or cells: baculovirus expression system
T3 sequence (P52333 822-1111 limits assumed): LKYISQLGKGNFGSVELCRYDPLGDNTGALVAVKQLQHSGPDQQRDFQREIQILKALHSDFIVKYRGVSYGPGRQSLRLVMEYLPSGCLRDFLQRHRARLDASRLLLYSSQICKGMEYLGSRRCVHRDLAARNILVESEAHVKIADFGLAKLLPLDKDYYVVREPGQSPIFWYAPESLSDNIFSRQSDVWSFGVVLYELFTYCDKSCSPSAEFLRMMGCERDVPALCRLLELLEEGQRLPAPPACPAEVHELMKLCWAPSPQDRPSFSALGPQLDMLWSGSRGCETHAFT
As to the kind of experiment: JAK kinase assay (HTRF, phosphorylation of synthetic peptide), JAK3. The conditions noted are these: catalytic domain, ATP at Km (2 μM); read-out: JAK3 kinase inhibitory activity (EC50). The procedure: as §1, §2

The target of a further test is T4, TYK2 (Homo sapiens, UniProt P29597).
T4 construct: JAK1 (aa 850-1154) and TYK2 (aa 871-1187) are expressed with an N-terminally fused GST-tag; GST (N); purchased Carna Biosciences, Inc; host or cells: baculovirus expression system
T4 sequence (P29597 871-1187): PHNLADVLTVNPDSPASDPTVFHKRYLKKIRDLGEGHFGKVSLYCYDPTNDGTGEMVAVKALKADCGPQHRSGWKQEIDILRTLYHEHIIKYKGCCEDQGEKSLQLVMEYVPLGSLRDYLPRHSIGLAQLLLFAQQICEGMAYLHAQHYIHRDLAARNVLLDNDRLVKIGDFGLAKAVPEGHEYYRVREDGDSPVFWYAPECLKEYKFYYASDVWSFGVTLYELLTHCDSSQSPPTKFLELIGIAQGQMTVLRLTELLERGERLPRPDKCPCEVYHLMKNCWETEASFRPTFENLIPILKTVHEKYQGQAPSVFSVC
As to the kind of experiment: JAK kinase assay (HTRF, phosphorylation of synthetic peptide), TYK2. The conditions noted are these: catalytic domain, ATP at Km (13 μM); read-out: TYK2 kinase inhibitory activity (EC50). The procedure: as §1, §2

T2 sequence (O60674 849-1124 limits assumed): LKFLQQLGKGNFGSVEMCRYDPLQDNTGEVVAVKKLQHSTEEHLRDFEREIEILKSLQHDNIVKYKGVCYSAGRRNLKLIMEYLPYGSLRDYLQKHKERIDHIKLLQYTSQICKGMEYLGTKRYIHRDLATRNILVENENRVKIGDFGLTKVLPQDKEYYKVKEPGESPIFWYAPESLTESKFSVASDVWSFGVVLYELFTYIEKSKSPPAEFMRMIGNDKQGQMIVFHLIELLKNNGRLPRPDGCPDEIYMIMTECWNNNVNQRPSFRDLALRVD
T1 sequence (P23458 850-1154): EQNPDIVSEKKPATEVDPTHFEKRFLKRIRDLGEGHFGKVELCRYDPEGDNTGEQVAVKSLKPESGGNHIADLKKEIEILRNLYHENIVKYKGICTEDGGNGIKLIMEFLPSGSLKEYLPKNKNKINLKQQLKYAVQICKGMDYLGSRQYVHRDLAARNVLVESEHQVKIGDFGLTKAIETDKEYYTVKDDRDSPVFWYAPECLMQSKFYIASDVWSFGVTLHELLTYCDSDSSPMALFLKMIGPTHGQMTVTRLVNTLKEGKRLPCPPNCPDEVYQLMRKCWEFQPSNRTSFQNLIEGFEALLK

`Cc1noc(C)c1CCN(C)S(=O)(=O)N1CCN(c2ncnc3[nH]ccc23)CC12CC2` [Example 32, 7-(7H-Pyrrolo[2,3-d]pyrimidin-4-yl)-4,7-diaza-spiro[2.5]octane-4-sulfonic acid [2-(3,5-dimethyl-isoxazol-4-yl)-ethyl]-methyl-amide]: the EC50 (commonly the concentration that produces a half-maximal response) at JAK1 was less than 100 nM; at JAK2, less than 100 nM; on JAK3 it was less than 100 nM; at TYK2, 100 to 500 nM.
Take `COC(=O)CN(C)S(=O)(=O)N1CCN(c2ncnc3[nH]ccc23)CC12CC2` [Example 34, {Methyl-[7-(7H-pyrrolo[2,3-d]pyrimidin-4-yl)-4,7-diaza-spiro[2.5]octane-4-sulfonyl]-amino}-acetic acid methyl ester]: the concentration for a half-maximal effect (EC50) at JAK1 is less than 100 nM; on JAK2, less than 100 nM; at JAK3 it was less than 100 nM; at TYK2, 100 to 500 nM.
On to `CN(CCCC#N)S(=O)(=O)N1CCN(c2ncnc3[nH]ccc23)CC12CC2` [Example 35, 7-(7H-Pyrrolo[2,3-d]pyrimidin-4-yl)-4,7-diaza-spiro[2.5]octane-4-sulfonic acid (3-cyano-propyl)-methyl-amide], for which the EC50 on JAK1, at JAK2, on JAK3 and at TYK2 was less than 100 nM in each case.
`CN(C)C(=O)CN(C)S(=O)(=O)N1CCN(c2ncnc3[nH]ccc23)CC12CC2` [Example 36, N,N-Dimethyl-2-{methyl-[7-(7H-pyrrolo[2,3-d]pyrimidin-4-yl)-4,7-diaza-spiro[2.5]octane-4-sulfonyl]-amino}-acetamide]: the EC50 on JAK1 is less than 100 nM; at JAK2, less than 100 nM; on JAK3, 100 to 500 nM; at TYK2, 100 to 500 nM.
`CN(Cc1ccc(C#N)cc1)S(=O)(=O)N1CCN(c2ncnc3[nH]ccc23)CC12CC2` [Example 37, 7-(7H-Pyrrolo[2,3-d]pyrimidin-4-yl)-4,7-diaza-spiro[2.5]octane-4-sulfonic acid (4-cyano-benzyl)-methyl-amide]: the EC50 is less than 100 nM at JAK1, less than 100 nM on JAK2, less than 100 nM at JAK3 and 100 to 500 nM at TYK2.
`O=S(=O)(N1CCCCC1)N1CCN(c2ncnc3[nH]ccc23)CC12CC2` [Example 38, 4-[4-(Piperidine-1-sulfonyl)-4,7-diaza-spiro[2.5]oct-7-yl]-7H-pyrrolo[2,3-d]pyrimidine]: the EC50 on JAK1 was 100 to 500 nM; on JAK2 it was less than 100 nM; at JAK3 it was 100 to 500 nM; at TYK2, 100 to 500 nM.
`N#CC1CCN(S(=O)(=O)N2CCN(c3ncnc4[nH]ccc34)CC23CC3)CC1` [Example 39, 1-[7-(7H-Pyrrolo[2,3-d]pyrimidin-4-yl)-4,7-diaza-spiro[2.5]octane-4-sulfonyl]-piperidine-4-carbonitrile]: the EC50 at JAK1 was less than 100 nM; on JAK2 it was less than 100 nM; at JAK3, 100 to 500 nM; at TYK2, greater than 500 nM.
Turning to `CN(c1ccccc1)S(=O)(=O)N1CCN(c2ncnc3[nH]ccc23)CC12CC2` [Example 40, 7-(7H-Pyrrolo[2,3-d]pyrimidin-4-yl)-4,7-diaza-spiro[2.5]octane-4-sulfonic acid methyl-phenyl-amide], the EC50 at JAK1 is less than 100 nM; at JAK2 it was less than 100 nM; at JAK3, 100 to 500 nM; at TYK2, 100 to 500 nM.
Regarding `N#CC1CCCN(S(=O)(=O)N2CCN(c3ncnc4[nH]ccc34)CC23CC3)C1` (centres unmarked) [Example 42, 1-[7-(7H-Pyrrolo[2,3-d]pyrimidin-4-yl)-4,7-diaza-spiro[2.5]octane-4-sulfonyl]-piperidine-3-carbonitrile], the EC50 was less than 100 nM on JAK1, less than 100 nM at JAK2, 100 to 500 nM at JAK3 and greater than 500 nM on TYK2.
As to `CN(C)S(=O)(=O)N1CCN(c2ncnc3[nH]ccc23)CC12CC2` [Example 45, 7-(7H-Pyrrolo[2,3-d]pyrimidin-4-yl)-4,7-diaza-spiro[2.5]octane-4-sulfonic acid dimethylamide], the EC50 was less than 100 nM at JAK1, less than 100 nM at JAK2, less than 100 nM at JAK3 and 100 to 500 nM at TYK2.
On to `CCOC(=O)CN(CCc1ccccc1)S(=O)(=O)N1CCN(c2ncnc3[nH]ccc23)CC12CC2` [Example 46, {Phenethyl-[7-(7H-pyrrolo[2,3-d]pyrimidin-4-yl)-4,7-diaza-spiro[2.5]octane-4-sulfonyl]-amino}-acetic acid ethyl ester], for which the EC50 on JAK1 is less than 100 nM; at JAK2 it was less than 100 nM; on JAK3 it was 100 to 500 nM; at TYK2, greater than 500 nM.
On to `O=S(=O)(N(CCc1ccccc1)CCc1ccc(F)cc1)N1CCN(c2ncnc3[nH]ccc23)CC12CC2` [Example 47, 7-(7H-Pyrrolo[2,3-d]pyrimidin-4-yl)-4,7-diaza-spiro[2.5]octane-4-sulfonic acid [2-(4-fluoro-phenyl)-ethyl]-phenethyl-amide], for which the EC50 on JAK1 was 100 to 500 nM; on JAK2 it was 100 to 500 nM; on JAK3, greater than 500 nM; on TYK2, greater than 500 nM.
As to `O=S(=O)(N(CCc1ccccc1)CCc1cccc(F)c1)N1CCN(c2ncnc3[nH]ccc23)CC12CC2` [Example 48, 7-(7H-Pyrrolo[2,3-d]pyrimidin-4-yl)-4,7-diaza-spiro[2.5]octane-4-sulfonic acid [2-(3-fluoro-phenyl)-ethyl]-phenethyl-amide], the EC50 at JAK1 is 100 to 500 nM; on JAK2, 100 to 500 nM; at JAK3, greater than 500 nM; at TYK2, greater than 500 nM.
Consider `O=C(CN(CCc1ccccc1)S(=O)(=O)N1CCN(c2ncnc3[nH]ccc23)CC12CC2)NCc1ccccc1` [Example 49, N-Benzyl-2-{phenethyl-[7-(7H-pyrrolo[2,3-d]pyrimidin-4-yl)-4,7-diaza-spiro[2.5]octane-4-sulfonyl]-amino}-acetamide], for which the EC50 on JAK1 was less than 100 nM; on JAK2, less than 100 nM; on JAK3, 100 to 500 nM; on TYK2, greater than 500 nM.
As to `CC(C)NS(=O)(=O)N1CCN(c2ncnc3[nH]ccc23)CC12CC2` [Example 50, 7-(7H-Pyrrolo[2,3-d]pyrimidin-4-yl)-4,7-diaza-spiro[2.5]octane-4-sulfonic acid isopropylamide], the EC50 is 100 to 500 nM at JAK1, less than 100 nM at JAK2, 100 to 500 nM at JAK3 and 100 to 500 nM on TYK2.
For the compound `COc1ccc(CCN(C)S(=O)(=O)N2CCN(c3ncnc4[nH]ccc34)CC23CC3)cc1OC` [Example 51, 7-(7H-Pyrrolo[2,3-d]pyrimidin-4-yl)-4,7-diaza-spiro[2.5]octane-4-sulfonic acid [2-(3,4-dimethoxy-phenyl)-ethyl]-methyl-amide], the EC50 is less than 100 nM at JAK1, less than 100 nM at JAK2, less than 100 nM at JAK3 and 100 to 500 nM at TYK2.
Take `CN(Cc1ccccc1)S(=O)(=O)N1CCN(c2ncnc3[nH]ccc23)CC12CC2` [Example 52, 7-(7H-Pyrrolo[2,3-d]pyrimidin-4-yl)-4,7-diaza-spiro[2.5]octane-4-sulfonic acid benzyl-methyl-amide]: the EC50 on JAK1 is less than 100 nM; on JAK2, less than 100 nM; at JAK3, less than 100 nM; on TYK2, 100 to 500 nM.

For the origin of these results see patent US9233964B2, “Sulfamide piperazine derivatives as protein tyrosine kinase inhibitors and pharmaceutical use therof” (LEO PHARMA A/S, priority 2011, dated 2016).
